Measurements from PubChem BioAssay (NCI).
Where “and” joins values, the source holds several entries; their conditions need not be identical. Identical values can stand only once.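 Compound exposure: 48 hours, 5 concentrations, 96-well plates. GI50 marks 50% less growth. At the TGI there is no net growth.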

Tests used:
Assay in all cases: NCI-60 cell line screen, 48 h
[1] = test system: MCF7 breast
[2] = test system: MDA-MB-231 breast
[3] = test system: BT-549 breast
[4] = test system: MDA-N
[5] = test system: SNB-78 CNS
[6] = test system: DMS 114 small cell lung
[7] = test system: LXFL 529 NSCLC
[8] = test system: DLD-1 colon

Row | SMILES | GI50 [1] [µM] | TGI [1] [µM] | GI50 [2] [µM] | TGI [2] [µM] | GI50 [3] [µM] | TGI [3] [µM] | other results
1 | COC1=CC(=O)c2nc(-c3cccc(C)n3)[nH]c2C1=O | 16.6 | 35.7 | 27.1 | 66.2 | 17.8 | 36.5 | –
2 | CC(=O)CSCc1ccccn1 | – | – | – | > 100 | – | > 100 | TGI [4]: > 100 µM
3 | CN1C(=O)c2cccc3cc([N+](=O)[O-])cc(c23)C1=O | – | > 10 | – | > 10 | – | > 10 | TGI [4]: > 10 µM
4 | CC(=O)[O-].CCN(CC)c1ccc(C=NCCN=Cc2ccc(N(CC)CC)cc2[O-])c([O-])c1.[Mn+3] | – | – | – | – | – | – | GI50 [5]: 45.1 µM; TGI [5]: > 100 µM; GI50 [6]: 19.6 µM; TGI [6]: 35.8 µM; GI50 [7]: 22.5 µM; TGI [7]: 44.1 µM; GI50 [8]: 55.2 µM; TGI [8]: > 100 µM
5 | O=C1OC(C(O)CO)C(=O)C1=O (configuration not stated) | 2350 | 5860 | 2720 | > 10000 | 4320 | > 10000 | –
6 | Cc1cccc(N2CCN(C(=S)c3ccc4c(c3)OCO4)CC2)c1 | 0.571 | > 100 | 0.861 | > 100 | – | – | –
7 | CCC[CH2][Sn]1([CH2]CCC)[O]CC(CN2CCCC2)[O]1 (configuration not stated) | – | – | – | – | – | – | GI50 [5]: 11.4 µM; TGI [5]: 37.4 µM; GI50 [6]: 13 µM; TGI [6]: 27 µM; GI50 [7]: 4.33 µM; TGI [7]: 15.3 µM; GI50 [8]: 16.1 µM; TGI [8]: 32.7 µM
8 | COc1ccccc1CNCCCN1C(=O)c2ccc3c4c(ccc(c24)C1=O)C(=O)N(CCCOCCCCOCCCN)C3=O | – | – | 1.08 | 4.14 | – | – | –
9 | NS(=O)(=O)c1ccc(NC2(C(=O)O)CCCC2)cc1 | – | > 100 | – | > 100 | – | > 100 | TGI [4]: > 100 µM
10 | COC(=O)/C(=N\Nc1nnc(C)n1N)C(C#N)c1ccc(Cl)cc1 (configuration not stated) | – | – | – | – | – | – | TGI [5]: > 100 µM; TGI [6]: > 100 µM; TGI [7]: > 100 µM; TGI [8]: > 100 µM
11 | COc1nc2ccccc2cc1-c1nc2c(cnn2-c2ccc(Br)cc2)c(=O)[nH]1 | 0.0201 | > 50 | 0.133 | > 27.4 | 0.156 | > 25.1 | –
12 | CCCCC(O)(c1ccc(Cl)cc1)C(CN1CCOCC1)c1ccc(Cl)cc1 (configuration not stated) | 10.6 | 24.5 | 12.7 | 27.7 | 15.7 | 31 | –
13 | C=C1C(=O)O[C@@H]2/C=C(\C)CC/C=C(/COC(C)=O)C[C@@H](OC(C)=O)[C@@H]12 | – | 17 | – | 28.5 | – | 16.7 | TGI [4]: 20.5 µM
14 | Cc1ccn2c(c1)nc1nc3ccccc3nc12 | – | – | – | – | – | – | TGI [5]: > 100 µM; TGI [6]: > 100 µM; TGI [7]: > 100 µM; TGI [8]: > 100 µM
15 | NCCCCN(CCCN)/[N+]([O-])=N\O | – | – | – | – | – | – | TGI [5]: > 100 µM; TGI [6]: > 100 µM; TGI [7]: > 100 µM; TGI [8]: > 100 µM
16 | COC(=O)C1=CNC=C(C(=O)OC)C1C1=CC(=O)C(C)=CC1=O | 16.7 | 47.5 | 2.78 | 19.1 | 18.2 | 34.3 | –

Row | SMILES | GI50 [1] [µM] | TGI [1] [µM] | GI50 [2] [µM] | TGI [2] [µM] | GI50 [3] [µM] | TGI [3] [µM] | other results
17 | CCCCCCCC/C=C/CCCCCCCC(=O)OC[C@H]1O[C@@H](n2ccc(N)nc2=O)C(F)(F)[C@@H]1O | < 0.01 | > 100 | 7.98 | > 100 | – | > 60.6 | –
18 | COc1cc(-c2ccc3c(c2)NC(=O)/C3=C\c2ccc[nH]2)ccc1O | 0.0888 | > 50 | 0.0409 | > 50 | 0.0968 | > 50 | –
19 | N#CC(NNC(=O)Cc1ccccc1)c1c(O)ccc2ccccc12 (configuration not stated) | – | 14.3 | – | 58.9 | – | 24.7 | TGI [5]: 72 µM; TGI [6]: 5.38 µM; TGI [4]: > 100 µM; TGI [8]: > 100 µM
20 | NCC1Nc2ccccc2[C@@H](O)C1O (some centres not stated) | – | > 100 | – | > 100 | – | – | TGI [4]: > 100 µM
21 | C[C@@]12CC=C3c4nc(Nc5cccc(O)c5)sc4CC[C@]3(C)[C@H]1CC[C@]1(C)C(=O)CC[C@@H]21 | 1.85 | 4.43 | 3 | 15 | 1.61 | 6.47 | –
22 | CN1C/C=C\CCOc2cccc(c2)-c2ccnc(n2)Nc2cccc(c2)C1 | 0.0354 | 1.23 | 0.0591 | 0.859 | 0.0789 | 0.393 | –
23 | CN(C)C(=O)c1cc2cnc(Nc3ccc(-c4csc5c(=S)cc(N6CCOCC6)oc45)cc3)nc2n1C1CCCC1 | 0.235 | 2.44 | 0.249 | > 50 | 0.698 | 3.83 | –
24 | O=C1CCN2C(=O)CCN12 | – | – | – | – | – | – | TGI [5]: > 100 µM; TGI [6]: > 100 µM; TGI [7]: > 100 µM
25 | CCOC(=O)[C@@H](N)CCC(=O)N[C@@H](CSCc1ccccc1)C(=O)N[C@@H](C(=O)OCC)c1ccccc1 | 16.5 | 33.9 | 18.1 | 34.1 | 17.5 | 33 | –
26 | Clc1nc(Cl)c(Cl)c(-c2ccccc2)n1 | – | 48.7 | – | – | – | 7.81 | –
27 | NS(=O)(=O)c1ccc(N=Nc2c(O)[nH]c3ccc(-c4cnco4)cc23)cc1 | 11.8 | > 25 | > 25 | > 25 | 18 | > 25 | –
28 | O=C(NC1=CC(=O)c2ccccc2C1=O)c1ccccc1 | 1.05 | 2.76 | 0.421 | 1.76 | 0.706 | 14.9 | –
29 | CN1CCN(CCCOc2ccc3nc(Nc4ccc(Cl)c(C(F)(F)F)c4)ccc3c2)CC1 | 4.94 | 22 | 7.59 | 23.1 | 14.2 | 27.7 | –
30 | COc1cc(/C=C/c2cc(/C=C/c3ccc(O)c(OC)c3)n(C(=O)Nc3ccc(F)c(Cl)c3)n2)ccc1O | 0.185 | 1.51 | 0.495 | 3.85 | 0.921 | 7.98 | –
31 | COc1cccc2c1C(=O)c1c(O)c3c(c(O)c1C2=O)C[C@@](O)(C(C)=O)C[C@@H]3OC1OC(C)C(O)C(N)C1Br (some centres not stated) | – | – | – | 1.72 | – | 0.913 | TGI [5]: 3.09 µM; GI50 [6]: 0.0233 µM; TGI [6]: 0.428 µM and 0.212 µM; TGI [7]: 1.12 µM; TGI [4]: 0.63 µM; GI50 [8]: 0.0679 µM; TGI [8]: 0.175 µM and 0.607 µM
